Test results taken from patent US11723889B2, “Amyloid fiber formation limiter or inhibitor” (Omoidesouzou Co., Ltd., priority 2014, dated 2023).

Tests used:
Type in all cases: in vivo, human
Alzheimer's disease = assay: Oral tranilast in a patient with Alzheimer's disease (Case 5), testing methods for dementia HDS-R and MMSE
Protocol: (§1) 2. Confirmation that the agent for suppressing or inhibiting an amyloid fibril formation of the present invention has a therapeutic effect against cerebral amyloidosis. Because it was shown that tranilast has the effect of suppressing amyloid fibril formation in the skin, whether dementia and Alzheimer's disease arising from amyloid fibril deposition in the brain could be ameliorated was studied. A patient with Alzheimer's disease (person) was administered orally with a 100 mg capsule of tranilast (brand name: Rizaben, Kissei Pharmaceutical Co., Ltd.) three times a day. About 5 months after the start of administration of tranilast on Oct.

dementia = assay: Oral tranilast in a patient with dementia (Case 4), testing methods for dementia HDS-R and MMSE
Protocol: as §1, with “dementia (patient two)” for “Alzheimer's disease (person)”, “day.” for “day. About 5 months after the start of administration of tranilast on Oct.”

cutaneous amyloidosis = assay: Oral tranilast treatment of patients with cutaneous amyloidosis / cutaneous lichen amyloidosis (Cases 1-3), clinical observation of skin symptoms
Description: 1. Confirmation that the agent for suppressing or inhibiting an amyloid fibril formation of the present invention has a therapeutic effect against cutaneous amyloidosis.
patient one observed with symptoms of cutaneous amyloidosis specific pigment-associating invasion and itch in the upper back had been treated without tranilast for an initial duration of 4 years, however, no therapeutic effect was observed. Therefore, the treatment shifted to the use of tranilast. The above-mentioned patient was administered orally with a 100 mg capsule of tranilast (brand name: Rizaben, Kissei Pharmaceutical Co., Ltd.) three times a day. […] Worsening or relapse of rash was not observed at least 3 years afterwards.
Therefore, the treatment shifted to the use of tranilast. The above-mentioned patient was administered orally with a 100 mg capsule of tranilast (brand name: Rizaben, Kissei Pharmaceutical Co., Ltd.) three times a day. From day 16 (Jul. 16, 2014) (see FIG. 1B) after the start of oral administration on Jun. […] The degree of amelioration of rash increased day by day (see FIGS. 1C to 1E).
A patient observed with chronic eczema with rash along with strong itch in the upper back for several years started the treatment with tranilast. The patient was administered orally with a 100 mg capsule of tranilast (brand name: Rizaben, Kissei Pharmaceutical Co., Ltd.) three times a day. When the oral administration started on Jul. 29, 2014, amyloid deposited brown papule was densely lichenified (see FIG. 2A).

[1] = 1 year and 4 months after start of administration (December 2013)
[2] = Case 1, 100 mg capsule orally three times a day, within another 1 month (about 2 months after start)

COc1ccc(/C=C/C(=O)Nc2ccccc2C(=O)O)cc1OC [tranilast, N-(3,4-dimethoxycinnamoyl)anthranilic acid]
effect on the symptoms of Alzheimer's type dementia by HDS-R and MMSE (Alzheimer's disease; 100 mg capsule orally three times a day, about 5 months after start): clear ameliorating effect | HDS-R Value (Alzheimer's disease; about 5 months after start (Mar. 19, 2015), value at start of administration 9): 12 | MMSE Value (Alzheimer's disease; about 5 months after start (Mar. 19, 2015), value at start of administration 14): 22 | effect by two testing methods for dementia (HDS-R and MMSE) (dementia; 100 mg capsule orally three times a day, 1 year and 4 months after start): clear ameliorating effect | HDS-R Value (dementia; [1]): 20 | MMSE Value (dementia; [1]): 25 | HDS-R Value (dementia; 5 months after start of administration (January 2013), 23 at 1 year and 5 months before start): 15 | MMSE Value (dementia; 5 months after start of administration (January 2013), 27 at 1 year and 5 months before, 28 at 3 years and 10 months before): 22 | pigmentation (cutaneous amyloidosis; Case 1, upper back, 100 mg capsule orally three times a day, about 1 month after start of oral administration): started to thin | itch (cutaneous amyloidosis; [2]): reduced | rash (cutaneous amyloidosis; [2]): largely ameliorated | worsening or relapse of rash (cutaneous amyloidosis; Case 1, at least 3 years afterwards): not observed | amyloid deposited brown papule (cutaneous amyloidosis; Case 2, 100 mg capsule orally three times a day, day 151 after start of oral administration): almost disappeared | amyloid deposited brown papule (cutaneous amyloidosis; Case 2, 100 mg capsule orally three times a day, from day 16 after start of oral administration): thinned, decreased in size, and ameliorated clearly | condition (papule almost disappeared) maintained until (cutaneous amyloidosis; Case 2, day after start of oral administration): ≥ 238 days | symptoms (densely lichenified amyloid deposited brown papule) (cutaneous amyloidosis; Case 3, upper back, 100 mg capsule orally three times a day, day 15 after start): improvement in the symptoms was observed | symptoms (densely lichenified amyloid deposited brown papule) (cutaneous amyloidosis; Case 3, 100 mg capsule orally three times a day, day 29 after start): clear improvement in the symptoms was observed | improved condition maintained until (cutaneous amyloidosis; Case 3, day after start of oral administration): ≥ 89 days
